Consider three molecules from the NIST ThermoML archive (doi:10.1021/je500542j).

The data set can be described thus: wn = mass fraction of the nth substance listed. The conditions noted are these: 101 kPa, Liquid, Vibrating tube method.

Structures are written as SMILES. “And” between values parts separate entries of the source, which are not always exact repeats. Identical values can stand only once. ± gives the expanded uncertainty stated by the source.

Usually mass density stands for the mass of a sample divided by its volume. On to `O=C(O)c1ccccc1C(=O)O` [1,2-benzenedicarboxylic acid] + CN1CCCC1=O, for which the mass density was 1037.8 ± 1 kg/m3 and 1038 ± 1 kg/m3 (303.15 K, w1 = 0.158); 1042.8 ± 1.1 kg/m3 (313.15 K, w1 = 0.187).
Consider `O=C(O)c1cccc(C(=O)O)c1` [1,3-benzenedicarboxylic acid] + CN1CCCC1=O, for which the mass density is recorded as 1036.1 ± 1 kg/m3 (303.15 K, w1 = 0.1624) and 1038.5 ± 7.6 kg/m3 (313.15 K, w1 = 0.1957).
Consider `O=C(O)c1ccc(C(=O)O)cc1` [1,4-benzenedicarboxylic acid] + CN1CCCC1=O, for which the mass density was 1029.5 ± 1 kg/m3 (303.15 K, w1 = 0.05896); 1031.5 ± 1 kg/m3 and 1038.5 ± 1 kg/m3 (313.15 K, w1 = 0.08754).
